# Legend:
# Type in all cases: in vivo
# [1] = system: cocklebur (Xanthium strumarium); test: Test B pre-/postemergence plant response; settings: Preemergence
# Source text: (§1) Seeds of plant species selected from blackgrass (Alopecurus myosuroides), downy bromegrass (Bromus tectorum), green foxtail (Setaria viridis), Italian ryegrass (Lolium multiflorum), wheat (Triticum aestivum), wild oat (Avena fatua), deadnettle (henbit deadnettle, Lamium amplexicaule), galium (catchweed bedstraw, Galium aparine), bermudagrass (Cynodon dactylon), Surinam grass (Brachiaria decumbens), cocklebur (Xanthium strumarium), corn (Zea mays), large crabgrass (Digitaria sanguinalis), woolly cupgrass (Eriochloa villosa), giant foxtail (Setaria faberii), goosegrass (Eleusine indica), johnsongrass (Sorghum halepense), kochia (Kochia scoparia), lambsquarters (Chenopodium album), morningglory (Ipomoea coccinea), nightshade (eastern black nightshade, Solanum ptycanthum), yellow nutsedge (Cyperus esculentus), pigweed (Amaranthus retroflexus), ragweed (common ragweed, Ambrosia elatior), Russian thistle (Salsola kali), soybean (Glycine max), sunflower (common oilseed sunflower, Helianthus annuus) and velvetleaf (Abutilon theophrasti) were planted into a blend of loam soil and sand and treated preemergence with test compounds formulated in a non-phytotoxic solvent mixture which included a surfactant.
# (§2) At the same time, plants selected from these crop and weed species and also winter barley (Hordeum vulgare), canarygrass (Phalaris minor), chickweed (Stellaria media) and windgrass (Apera spica-venti) were planted in pots containing Redi-Earth® planting medium (Scotts Company, 14111 Scottslawn Road, Marysville, Ohio 43041) comprising spaghnum peat moss, vermiculite, wetting agent and starter nutrients and treated with postemergence applications of some of the test chemicals formulated in the same manner. Plants ranged in height from 2 to 18 cm (1- to 4-leaf stage) for postemergence treatments.
# (§3) Treated plants and controls were maintained in a greenhouse for 13 to 15 days, after which time all treated plants were visually evaluated and compared to controls. Plant response ratings, summarized in Table B, are based on a scale of 0 to 100 where 0 is no effect and 100 is complete control. A dash (-) response means no test result.
# [2] = system: morningglory (Ipomoea coccinea); test: Test B pre-/postemergence plant response
# Source text: as §1, §2, §3
# [3] = system: wheat (Triticum aestivum); test: Test B pre-/postemergence plant response
# Source text: as §1, §2, §3
# soybean (Glycine max) = test: Test B pre-/postemergence plant response
# Source text: as §1, §2, §3
# [4] = system: barnyardgrass (Echinochloa crus-galli); test: Test A pre-/postemergence plant response
# Procedure, shortened: (§4)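 Pre: directed soil spray on seeded loam/sand blend. Post: same formulation (non-phytotoxic solvent + surfactant) on 2–10 cm plants, 1–2 leaf stage. Greenhouse ~10 d; visual injury score 0–100 vs untreated.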
# [5] = system: velvetleaf (Abutilon theophrasti); test: Test A pre-/postemergence plant response
# Procedure, shortened: as §4
# [6] = system: wheat (Triticum aestivum); test: Test A pre-/postemergence plant response
# Procedure, shortened: as §4
# [7] = system: large crabgrass (Digitaria sanguinalis); test: Test A pre-/postemergence plant response
# Procedure, shortened: as §4
# [8] = system: pigweed (Amaranthus retroflexus); test: Test A pre-/postemergence plant response
# Procedure, shortened: as §4
# [9] = system: giant foxtail (Setaria faberii); test: Test A pre-/postemergence plant response
# Procedure, shortened: as §4
# corn (Zea mays) = test: Test A pre-/postemergence plant response
# Procedure, shortened: as §4
# [10] = system: morningglory (Ipomoea spp.); test: Test A pre-/postemergence plant response
# Procedure, shortened: as §4
# [11] = 250 g ai/ha, Preemergence, 0 to 100 scale
# [12] = Postemergence, 62 g ai/ha, scale 0 (no effect) to 100 (complete control), 13 to 15 days
# [13] = Postemergence, 125 g ai/ha, visual rating after 13 to 15 days, scale 0 (no effect) to 100 (complete control)
# [14] = Preemergence, 31 g ai/ha, scale 0 to 100 (0 no effect, 100 complete control)
# [15] = Preemergence, 125 g ai/ha, 0 to 100 scale
# [16] = Postemergence, 125 g ai/ha, visual injury, 0 to 100 scale (0 no effect, 100 complete control), approx. ten days
# [17] = Postemergence, 500 g ai/ha, 0 to 100 scale, 0 = no effect, 100 = complete control, approx. ten days
# [18] = Preemergence, 125 g ai/ha, 0 to 100 scale, 0 = no effect, 100 = complete control
# [19] = Preemergence, 500 g ai/ha, visual injury, 0 to 100 scale (0 no effect, 100 complete control), approx. ten days
smiles,measurement,setting,value
O=C1CCCC(O)=C1C(=O)c1cnc(-c2ccccc2)n(-c2ccccc2Br)c1=O [Compound 37],"Plant response rating, Cocklebur","[1]; 250 g ai/ha, 0 to 100 scale",45
same,"Plant response rating, Cocklebur","[1]; 31 g ai/ha, scale 0 to 100 (0 no effect, 100 complete control)",0
same,Cocklebur plant response rating,"[1]; 125 g ai/ha, 0 to 100 scale",0
same,"Plant response rating, Morningglory",[2]; [11],0
same,"Plant response rating, Morningglory",[2]; [12],70
same,"Plant response rating, Morningglory",[2]; [13],75
same,"Plant response rating, Morningglory",[2]; [14],0
same,"Plant response rating, Morningglory","[2]; Preemergence, 62 g ai/ha, scale 0 to 100, 0 no effect, 100 complete control",0
same,Morningglory plant response rating,[2]; [15],0
same,"Plant response rating, Wheat",[3]; [11],0
same,"Plant response rating, Wheat",[3]; [12],0
same,"Plant response rating, Wheat",[3]; [13],0
same,"Plant response rating, Wheat",[3]; [14],0
same,Wheat plant response rating,[3]; [15],0
same,"Plant response rating, Soybean",soybean (Glycine max); [11],35
same,"Plant response rating, Soybean",soybean (Glycine max); [12],80
same,"Plant response rating, Soybean",soybean (Glycine max); [13],95
same,"Plant response rating, Soybean",soybean (Glycine max); [14],0
same,Soybean plant response rating,soybean (Glycine max); [15],0
same,Barnyardgrass plant response rating,[4]; [16],50
same,"Plant response rating, Barnyardgrass",[4]; [17],90
same,"Plant response rating, Barnyardgrass",[4]; [18],0
same,"Plant response rating, Barnyardgrass",[4]; [19],30
same,Velvetleaf plant response rating,[5]; [16],100
same,"Plant response rating, Velvetleaf",[5]; [17],100
same,"Plant response rating, Velvetleaf",[5]; [18],50
same,"Plant response rating, Velvetleaf",[5]; [19],90
same,Wheat plant response rating,[6]; [16],0
same,"Plant response rating, Wheat",[6]; [17],0
same,"Plant response rating, Wheat",[6]; [18],0
same,"Plant response rating, Wheat",[6]; [19],0
same,"Crabgrass, Large plant response rating",[7]; [16],70
same,"Plant response rating, Crabgrass, Large",[7]; [17],100
same,"Plant response rating, Crabgrass, Large",[7]; [18],10
same,"Plant response rating, Crabgrass, Large",[7]; [19],50
same,Pigweed plant response rating,[8]; [16],100
same,"Plant response rating, Pigweed",[8]; [17],100
same,"Plant response rating, Pigweed",[8]; [18],50
same,"Plant response rating, Pigweed",[8]; [19],100
same,"Foxtail, Giant plant response rating",[9]; [16],70
same,"Plant response rating, Foxtail, Giant",[9]; [17],90
same,"Plant response rating, Foxtail, Giant",[9]; [18],10
same,"Plant response rating, Foxtail, Giant",[9]; [19],50
same,Corn plant response rating,corn (Zea mays); [16],0
same,"Plant response rating, Corn",corn (Zea mays); [17],40
same,"Plant response rating, Corn",corn (Zea mays); [18],0
same,"Plant response rating, Corn",corn (Zea mays); [19],0
same,Morningglory plant response rating,[10]; [16],80
same,"Plant response rating, Morningglory",[10]; [17],100
same,"Plant response rating, Morningglory",[10]; [18],0
same,"Plant response rating, Morningglory",[10]; [19],30

# — patent US8952024B2, “Herbicidal pyrimidone derivatives” (E I du Pont de Nemours and Company, priority 2009, dated 2015)
